Measured values taken from paper PMC6156363, “The Modulatory Role of CYP3A4 in Dictamnine-Induced Hepatotoxicity” (Frontiers in Pharmacology, 2018).
Where “and” joins values, the source holds several entries; their conditions need not be identical. Equal values may be shown once.

Columns and labels:
CYP3A4 OE L02 cells = assay: MTT cytotoxicity in stable CYP3A4 over-expressed L02 cells; assay type: cell-based, human; conditions: DCF 400–2000 μM
Description: (§1) Cells were allowed to grow in the selection medium for 4 weeks, at which time individual clonal expansions (clones) were visible. Each clone was transferred and tested for enzymatic activity by a quantitative polymerase chain reaction (Q-PCR), western blot analysis and determining hydroxylation of testosterone.
(§2) The neutral red assay was performed to assess cell viability of NIH3T3 cells. […] After incubation, the neutral red reagent was added following the manufacturer’s instruction. The OD value was detected at 570 nm. The WT and CYP3A4 OE HepG2 and L02 were treated in the same manner as NIH3T3 cells, and cell viability was measured by MTT assay. Cell viability was calculated with the following equation (Eq. 1). OD value is presented as the mean ± SD from three independent replicate experiments.
(§3) Cell viability (%) =[…]

[1] = test system: primary human hepatocytes (PHH); assay: MTT cytotoxicity in primary human hepatocytes, with or without KTZ or RIF pre-incubation; assay type: cell-based; conditions: 1 mM DCF
Description: All of the compounds were dissolved in DMSO with the final concentration of DMSO was less than 0.2% in the incubation system. The MTT assay was employed and the optical density (OD) value was measured at 490 nm with a microplate reader (BioTek Instruments, Winooski, VT, United States).

CYP3A4 OE HepG2 cells = assay: MTT cytotoxicity in stable CYP3A4 over-expressed HepG2 cells; assay type: cell-based, human; conditions: DCF 400–2000 μM
Description: as §1, §2, §3

ICR mice [2] = assay: Liver injury in mice, group A (DEX induction): liver/body weight, ALT, AST, H&E; assay type: in vivo; conditions: individual mouse, liver H&E
Description: (§4) Male adult ICR mice (20 ± 2 g) were supplied by the Model Animal Research Center of Nanjing University (Nanjing, China). All experiments and animal care were conducted in accordance with the Provision and General Recommendation of Chinese Experimental Animals Administration Legislation and were approved by the Science and Technology Department of Jiangsu Province [license number: SYXK (SU) 2016-0011]. The mice were housed in a controlled temperature and humidity of 22 ± 2°C and 55 ± 5%, respectively, and maintained on a 12 h light/dark cycle with free access to food and water. Mice were fastened for 12 h and free to water before treatment.
(§5) Mice were randomly assigned into two groups for different treatment. The protocol was conducted as previously described with minor modification ([Iida et al., 2015]; [Li W. et al., 2016]). […] Blood and liver tissues were collected in 24 h following treatment. All the livers were quickly removed and the left lateral liver lobes were used for histopathological examinations.
The collected blood samples were allowed to clot at room temperature, followed by centrifugation at 4°C, 1,000 × g for 10 min. […] The sections were stained with hematoxylin and eosin (H&E), and finally evaluated by a pathologist using an optical microscope.

ICR mice [3] = assay: Liver injury in mice, group B (KTZ inhibition): liver/body weight, ALT, AST, H&E; assay type: in vivo; conditions: individual mouse, liver H&E
Description: as §4, §5
The collected blood samples were allowed to clot at room temperature, followed by centrifugation at 4°C, 1,000 × g for 10 min. The resulting sera were immediately sent for alanine transaminase (ALT) and aspartate aminotransferase (AST) assays to the laboratory in Jiangsu Province Hospital of Traditional Chinese and Western Medicine (Nanjing, China) on ice. The testing laboratory was authenticated with ISO15189 and the assay was performed in a Roche Cobas 8000 (ISE/701/701/502) automatic biochemical analyzer. Liver tissues were immediately fixed in 4% paraformaldehyde for at least 24 h, then paraffin-processed, and sectioned into 3-μm thick slices. The sections were stained with hematoxylin and eosin (H&E), and finally evaluated by a pathologist using an optical microscope.

CYP3A11 = assay: Hepatic CYP3A11 expression in mice by Q-PCR and Western blot; assay type: in vivo, mouse; conditions: mice liver, KTZ 75 mg/kg i.p., vs control

## O=C(O)Cc1ccccc1Nc1c(Cl)cccc1Cl [DCF, diclofenac sodium]
CYP3A4 OE L02 cells
  cell viability in CYP3A4 OE L02 cells compared with WT cells: greatly decreased
[1]; 24 h, KTZ 10 μM
  cell viability of PHH in the presence of KTZ: remarkably increased
[1]; RIF 20 μM
  cell viability of PHH pre-incubated with RIF: significantly decreased
CYP3A4 OE HepG2 cells
  cell viability in CYP3A4 OE HepG2 cells compared with WT cells: greatly decreased

## C[C@@H]1C[C@H]2[C@@H]3CCC4=CC(=O)C=C[C@]4(C)[C@@]3(F)[C@@H](O)C[C@]2(C)[C@@]1(O)C(=O)CO [DEX, Dexamethasone]
ICR mice [2]
  Congestion (histopathologic score): 1
  Scores (histopathologic, total): 0 and 1

## CC(=O)N1CCN(c2ccc(OCC3COC(Cn4ccnc4)(c4ccc(Cl)cc4Cl)O3)cc2)CC1 (stereo not shown) [KTZ, ketoconazole]
ICR mice [3]
  Inflammatory cells (histopathologic score): 0.5
  Scores (histopathologic, total): 0 and 0.5
  hepatocytes Degeneration (histopathologic score): 0.5
CYP3A11
  decrease in CYP3A11 expression: about 20%
